How the values were obtained:
Assay type in all cases: in vivo, Cimex lectularius L.
bed bugs [1] = assay: Screening of chemical lures in four-choice pitfall trap bioassays; settings: for Percent catch of bed bugs in pitfall traps, Mean (%) ± SE: four-choice: three lures and an unbaited control per arena, 50 μl lure, plastic tray arena, 50 bugs, 8 hours; for Trap catch versus corresponding unbaited control: four-choice bioassays, P<0.05
Description: Bed bugs were collected from an infested house in Lakewood, N.J. They were maintained in plastic containers (4.7 cm height and 5 cm diameter) with folded paper as harborages at 26° C.±1° C., 40±10% relative humidity, a 12:12 hour (L:D) photoperiod, and were deprived of food for the entire duration of the study. All bioassays were conducted within 3 months after bed bugs were collected.
Pitfall traps were used to evaluate the attractiveness of lures. The pitfall trap was an inverted plastic dog bowl (600 ml volume, 18 cm diameter, 6.4 cm deep and 1 mm thickness) (IKEA, Baltimore, Md., USA) (FIG. 1a). The outer wall of the trap was covered with a layer of paper surgical tape (Caring International, Mundelein, Ill., USA), which was painted black with ColorPlace spray paint (WalMart Stores Inc., Bentonville, USA).
Two types of experimental arenas were used: a) wooden door arenas (200 by 76 cm by 6.4 cm) (length by width by height) with wooden floor, and b) plastic tray arenas (80 by 75 by 5 cm) (length by width by height) with bottom lined with brown paper (FIG. 1b). A layer of fluoropolymer resin (DuPont Polymers, Wilmington, Del., USA) was applied to inner walls of the experimental arenas to prevent the bugs from escaping. A layer of this resin was also applied to inner walls of the pitfall traps in a similar fashion to confine the bed bugs that fell into the traps. A filter paper (15 cm diameter) was placed on the floor in the center of each arena, and then a plastic ring (13.3 cm diameter and 6.4 cm height) was placed on the filter paper for confining the bed bugs. A piece of folded cardboard and folded fabric was placed on the filter paper to provide harborages for bed bugs. Six additional paper harborages measuring 5.1 cm long and 3.3 cm wide were placed along the edges of the floor of each wooden arena. Two wooden door arenas were located at least 6 m away from each other in a 15 m long and 9 m wide room at 23-25° C. Two additional wooden door arenas were located in two 4 m long and 2.3 m wide rooms at 24-25° C. These rooms had normal air current through vents on the ceilings or through the open door. In experiments using plastic tray arenas, four arenas were placed simultaneously in a non-ventilated, closed room measuring 4 m long and 2.3 m wide at 24-25° C. A 12:12 hour (L:D) cycle was maintained in all the rooms that were used for bioassays. […]
Twelve known or potential bed bug chemical lures (Table 1) were evaluated for their attractiveness to bed bugs in plastic tray arenas.

bed bugs [2] = assay: Relative attractiveness of four chemical lures in four-choice bioassays; settings: for Percent of bed bugs captured in baited pitfall traps: four traps per arena, each baited with one of four chemicals, four replicates
Description: Four traps in each arena were baited with one of these chemicals. Four arenas were used to obtain four replicates. Percent attraction in multiple comparison experiments involving a control was calculated as: Percent attraction=100×(T−C)/Total, where “T” is the number of bed bugs in the baited pitfall trap and “C” is the number of bed bugs in the non-baited pitfall trap. “Total” is the total number of healthy bugs in each experiment arena at time of recording the bed bug locations. The percent catch is the number of bed bugs found in a pitfall trap divided by number of healthy bed bugs in each arena at the time of recording the results. Positive values indicate attraction to the treatment and negative values indicate repellency; and the values range from −100 (complete repellency) to +100 (complete attraction). For the paired design experiments, mean percent catch were analyzed by paired t-test (P=0.05). Mean percent attractions among the treatments were compared using the non-parametric Kruskal-Wallis tests followed by Tukey's HSD test. The data for Experiment 2.10.1 and 2.10.2 were pooled for analyzing differences among treatments (treatment×day interaction was insignificant from Analysis of Variance test).

bed bugs [3] = assay: Attractiveness of chemical lures in two-choice pitfall trap bioassays; settings: baited versus unbaited trap, Kruskal-Wallis / Tukey's HSD
Description: These chemicals were further evaluated to confirm their attractiveness to bed bugs using two-choice assays. The experimental setup and testing procedure were similar to those described above however only two traps were placed at opposite corners of each arena (FIG. 1b). One trap was used as an unbaited control and the other trap received a chemical lure. Each chemical lure was evaluated 8 times over two consecutive days. The baited and non-baited trap positions in each arena were switched on the second day to eliminate any positional effect that could influence the trap catch. Percent attraction in multiple comparison experiments involving a control was calculated as: Percent attraction=100×(T−C)/Total, where “T” is the number of bed bugs in the baited pitfall trap and “C” is the number of bed bugs in the non-baited pitfall trap. “Total” is the total number of healthy bugs in each experiment arena at time of recording the bed bug locations. The percent catch is the number of bed bugs found in a pitfall trap divided by number of healthy bed bugs in each arena at the time of recording the results. Positive values indicate attraction to the treatment and negative values indicate repellency; and the values range from −100 (complete repellency) to +100 (complete attraction). For the paired design experiments, mean percent catch were analyzed by paired t-test (P=0.05). […]

bed bugs [4] = assay: Effect of CO2 release rates on bed bug trap efficacy, door arenas; settings: release rates 200, 300, 400 and 500 ml/min
Description: The two traps were placed at opposite ends equidistant (85 cm) from the center. The experiment was tested over 4 consecutive days. On each day, a different CO2 release rate was used in each arena following a Latin square design. The CO2 source was 5 lb cylinders (Airgas East Inc., Piscataway, N.J., USA). The tested release rates were: 200, 300, 400 and 500 ml/min. The rate was determined as ml of water displaced by CO2 per unit of time using a Bubble-O-Meter (Bubble-O-Meter, Dublin, Ohio, USA). The CO2 was introduced into 240 ml plastic cups that were placed on the pitfall traps (FIG. 1c). Two holes were made on the lid of each plastic cup for CO2 to escape. Fifty bed bug nymphs and adult males were released into the center of each arena and confined with a plastic ring. The bugs were acclimated for approximately 15 hours before starting the treatments. At 1 hour after dark cycle, the plastic ring confining the bugs was removed. The numbers of bed bugs trapped in the pitfall traps and those in the arenas were collected and counted after 8 hours. […] The number of dead or moribund bed bugs in each arena was very low (<5%) in all the bioassays. After counting, dead and moribund bugs were replaced with healthy bugs in each arena. All bugs were placed back to the center of the arenas and confined with plastic rings for 15 hours before starting next bioassay.

Compound	Percent catch of bed bugs in pitfall traps, Mean (%) ± SE (bed bugs [1])	Trap catch versus corresponding unbaited control (bed bugs [1])	also measured
CC(O)c1ccccc1 (stereo not drawn) [Styralol]	16.4 ± 2.4bc %		
C=CC(O)CCCCC (stereo not drawn) [1-octen-3-ol]	28.3 ± 2.5a^a %	significantly higher number of bugs than their corresponding controls	Percent of bed bugs captured in baited pitfall traps (bed bugs [2]): 17.0±1.8%; Attraction compared among lures (percent attraction) (bed bugs [3]): not significantly different from nonanal
O=C=O [CO2, carbon dioxide]			Attraction of bed bugs to traps baited with CO2 (bed bugs [4]): very attractive to bed bugs regardless of the CO2 release rates
CC(=O)CCC=C(C)C [6-Methyl-5-Hepten-2-one]	20.9 ± 2.52ab %		
C[C@H](O)C(=O)O [L-lactic acid]	25.7 ± 2.7a %	significantly higher number of bugs than their corresponding controls	
OCc1ccccc1 [Benzyl alcohol]	25.1 ± 3.4ab %		
L-carvone	27.5 ± 3.5a %	significantly higher number of bugs than their corresponding controls	
CC(=O)CC/C=C(/C)CCC=C(C)C [Z-Geranyl Acetone]	13.0 ± 2.4a %		
CCCCCCCCC=O [Nonanal]	27.7 ± 3.2a %	significantly higher number of bugs than their corresponding controls	Percent of bed bugs captured in baited pitfall traps (bed bugs [2]): 34.0±4.6%; Attractiveness relative to spearmint oil, 1-octen-3-ol or coriander Egyptian oil (bed bugs [2]; four-choice comparison, P=0.01): approximately 2 fold; Attraction compared among lures (percent attraction) (bed bugs [3]): significantly more attractive than L-lactic acid, and L-carvone

Source: patent publication US9510581B2, “Bed bug lures” (Rutgers, The State University of New Jersey, priority 2011, dated 2016)
